Experiment: intramolecular Trp triplet quenching by Cys (photoinduced electron transfer, contact formation) in full-length measles virus NTAIL single C-W variants; nanosecond transient absorption (289 nm pump, 458 nm probe); tau_CW from 1/tau_CW = 1/tau_obs - 1/tau_0
Conditions: aqueous buffer: 15 mM Tris, 150 mM NaCl, 1 mM TCEP, pH 7.6, N2O-saturated; 0.1 mM; 20.0 °C; scale: us

Substance | ring closure, rate
H-GSTTEDKICRAVGPRQAQVSFLHGDQSENELPRLGGKEDRRVKQSRGEARESWRETGPSRASDARAAHLPTGTPLDIDTASESSQDPQDSRRSADALLRLQAMAGISEEQGSDTDTPIVYNDRNLLD-OH | 6.63
H-GSTTEDKISRAVGPRQAQVSFLHGDQCENELPRLGGKEDRRVKQSRGEARESWRETGPSRASDARAAHLPTGTPLDIDTASESSQDPQDSRRSADALLRLQAMAGISEEQGSDTDTPIVYNDRNLLD-OH | 3.1
H-GSTTEDKISRAVGPRQAQVSFLHGDQSENELPRLGGKEDRRVKQSRGEARESWRETGPSRASDARAAHLPTGTPLDIDTASESCQDPQDSRRSADALLRLQAMAGISEEQGSDTDTPIVYNDRNLLD-OH | 3.21
H-GSTTEDKISRAVGPRQAQVSFLHGDQSENELPRLGGKEDRRVKQSRGEARESYRETGPSRASDARAAHLPTGTPLDIDTASESCQDPQDSRRSADALLRLQAMAGISEEQGSDTDTPIVWNDRNLLD-OH | 7.6
H-GSTTEDKISRAVGPRQAQVSFLHGDQSENELPRLGGKEDRRVKQSRGEARESYRETGPSRASDARAAHLPTGTPLDIDTASESSQDPQDCRRSADALLRLQAMAGISEEQGSDTDTPIVWNDRNLLD-OH | 2.76

Source: article PMC12501004
